Reference: patent US20090062401A1, “DECALINE-DERIVED COMPOUNDS AS […] ACTIVE AGENTS” (UNIVERSITAT DORTMUND, priority 2004, published 2009)
Read-outs that look alike come from different tables or passages of the source.

Assays:
Type in all cases: biochemical
[1] = biological target: T1, Cdc25A (Homo sapiens, UniProt P30304); assay: Cdc25A phosphatase inhibition
T1 sequence (P30304 1-524): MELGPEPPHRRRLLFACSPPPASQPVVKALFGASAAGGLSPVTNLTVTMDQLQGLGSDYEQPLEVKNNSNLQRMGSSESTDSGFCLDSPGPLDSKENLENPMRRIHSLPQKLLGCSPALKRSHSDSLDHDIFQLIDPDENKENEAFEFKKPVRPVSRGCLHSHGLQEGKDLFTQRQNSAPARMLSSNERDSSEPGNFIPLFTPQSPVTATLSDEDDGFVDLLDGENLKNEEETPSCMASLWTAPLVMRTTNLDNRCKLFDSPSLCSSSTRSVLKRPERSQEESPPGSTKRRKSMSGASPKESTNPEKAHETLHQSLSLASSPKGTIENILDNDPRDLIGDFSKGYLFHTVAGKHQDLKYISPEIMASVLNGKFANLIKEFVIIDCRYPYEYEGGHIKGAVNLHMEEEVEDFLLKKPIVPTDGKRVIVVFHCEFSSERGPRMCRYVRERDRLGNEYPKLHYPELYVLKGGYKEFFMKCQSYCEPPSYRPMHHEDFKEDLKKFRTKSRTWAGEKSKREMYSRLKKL
From the text: Assay protocols for Cdc25A, 11βHSD1, 11βHSD2, and AChE are described in detain in the publication of Koch M A, Wittenberg L O, Basu S, Jeyaraj D A, Gourzoulidou E, Reinecke K, Odermatt A, Waldmann H (Proc. Natl. Acad. Sci. U.S.A. 2004 Nov. 30; 101(48):16721-6) and in Koch M A et al., Proc. Natl. Acad. Sci. U.S.A. 2005 Nov. 29; 102 (48):17272-7.

[2] = biological target: VHR (Homo sapiens, UniProt P51452); assay: VHR phosphatase inhibition, general phosphatase assay using para-nitrophenylphosphate; settings: read-out: IC50 Target VHR
From the text: (§1) Assays protocols for the other enzymes mentioned herein (MtPTPA, PP1, VHR, PTP1B) are disclosed in Schweizer R A S, Atanasov, G A, Frey B M, and Odermatt A, Mol. Cell. Endocrinol. 2003, 212, 41-49 and Barratte, B., Meijer L., Galaktionov K. & Beach D, Anticancer Res. 1992, 12, 873-880. For determination of the phosphatase activity, a general phosphatase assay using para-nitrophenylphosphate was applied.

[3] = biological target: T2, PTP1B (Homo sapiens, UniProt P18031); assay: PTP1B phosphatase inhibition, general phosphatase assay using para-nitrophenylphosphate; settings: read-out: IC50 Target PTP1B
T2 sequence (P18031 1-435): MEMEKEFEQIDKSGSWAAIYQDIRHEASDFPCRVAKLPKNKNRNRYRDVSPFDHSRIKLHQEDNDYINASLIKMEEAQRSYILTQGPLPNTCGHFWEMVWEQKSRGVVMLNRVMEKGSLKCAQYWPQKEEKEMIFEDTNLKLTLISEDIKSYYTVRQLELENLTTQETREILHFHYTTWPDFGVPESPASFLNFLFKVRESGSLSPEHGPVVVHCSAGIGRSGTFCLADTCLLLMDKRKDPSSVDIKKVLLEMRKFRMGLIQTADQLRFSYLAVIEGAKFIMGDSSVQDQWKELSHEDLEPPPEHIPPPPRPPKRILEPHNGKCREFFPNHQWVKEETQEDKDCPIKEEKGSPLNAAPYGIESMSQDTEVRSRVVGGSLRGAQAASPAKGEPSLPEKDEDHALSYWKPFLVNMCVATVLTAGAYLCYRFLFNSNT
From the text: as §1

Sequence of VHR (P51452 whole entry, species assumed): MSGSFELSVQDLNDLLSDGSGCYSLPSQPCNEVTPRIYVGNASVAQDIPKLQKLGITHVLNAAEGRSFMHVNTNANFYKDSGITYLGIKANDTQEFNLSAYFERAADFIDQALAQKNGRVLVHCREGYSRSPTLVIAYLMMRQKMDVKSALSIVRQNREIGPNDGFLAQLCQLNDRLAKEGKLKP

IC50 [2] [µM] | IC50 [3] [µM] | Compound | IC50 ([1]; read-out: IC50 Target Cdc25A) [µM] | IC50 [1] [µM]
 |  | CCCCCCC#Cc1ccccc1/C=C1\CCC2C(C)C(O)CC[C@]2(C)C1NC1CCCCC1 (stereo partly drawn) [Compound 323, (E,4aS)-6-[2-(Oct-1-inyl)benzyliden]-5-(cyclohexylamino)-decahydro-1,4a-dimethylnaphthalen-2-ol] | 10 to 50 | 
 |  | CC1=C2CCC[C@H](O)[C@@]2(C)C/C(=C\c2ccc(C#CCCCc3ccccc3)cc2)C1=O [Compound 72, (3E,4aS,5S)-3-[4-(5-Phenylpent-1-inyl)benzyliden]-4,4a,5,6,7,8-hexahydro-5-hydroxy-1,4a-dimethylnaphthalen-2(3H)-one] | 10 to 50 | 
10 to 50 | 10 to 50 | COc1ccc(/C=C2\C[C@@]3(C)C(=C(C)C2=O)CCC[C@@H]3O)c(C)c1 [Compound 16, (3E,4aS,5S)-3-(4-Methoxy-2-methylbenzyliden)-4,4a,5,6,7,8-hexahydro-5-hydroxy-1,4a-dimethylnaphthalen-2(3H)-one] |  | 
 |  | CC1=C2CCC[C@H](O)[C@@]2(C)C/C(=C\c2ccc(C#CC3(O)CCCCC3)cc2)C1=O [Compound 48, (3E,4aS,5S)-3-{4-[2-(1-Hydroxycyclohexyl)ethinyl]benzyliden}-4,4a,5,6,7,8-hexahydro-5-hydroxy-1,4a-dimethylnaphthalen-2(3H)-one] | 10 to 50 | 
 |  | CC1C(=O)/C(=C/c2cccn2C)C[C@@]2(C)C1CCC[C@@H]2O (stereo partly drawn) [Compound 86, (E,4aS,5S)-Octahydro-5-hydroxy-1,4a-dimethyl-3-[(1-methyl-1H-pyrrol-2-yl)methylen]naphthalen-2(1H)-one] | 10 to 50 | 
 |  | C=C(C)C#Cc1ccc(/C=C2\C[C@@]3(C)C(=C(C)C2=O)CCC[C@@H]3O)cc1 [Compound 71, (3E,4aS,5S)-3-[4-(3-Methylbut-3-en-1-inyl)benzyliden]-4,4a,5,6,7,8-hexahydro-5-hydroxy-1,4a-dimethylnaphthalen-2(3H)-on] | 10 to 50 | 
10 to 50 | 10 to 50 | CCCCCCCCCCCCCCC#Cc1ccc(/C=C2\C[C@@]3(C)C(=C(C)C2=O)CCC[C@@H]3O)cc1 [Compound 43, (3E,4aS,5S)-3-[4-(Hexadec-1-inyl)benzyliden]-4,4a,5,6,7,8-hexahydro-5-hydroxy-1,4a-dimethyl-naphthalen-2(3H)-one] |  | 
 |  | C=CC[C@@]12C(=CC(=O)/C(=C/c3ccccc3C#CCCCCCCCCCCCCCC)[C@@H]1C)CCC[C@@H]2O [Compound 326, (3E,4R,4aS,5S)-3-[2-(Hexadec-1-inyl)benzyliden]-4a-allyl-4,4a,5,6,7,8-hexahydro-5-hydroxy-4-methylnaphthalen-2(3H)on] | 10 to 50 | 
 |  | COCC#Cc1ccccc1/C=C1\C[C@@]2(C)C(=CC1=O)CCC[C@@H]2O [Compound 334, (3E,4aS,5S)-3-[2-(3-Methoxyprop-1-inyl)benzyliden]-4,4a,5,6,7,8-hexahydro-5-hydroxy-4a-methylnaphthalen-2(3H)-one] | 10 to 50 | 
10 to 50 | 10 to 50 | CC1=C2CCC[C@H](O)[C@@]2(C)C/C(=C\C[C@]2(O)C[C@@H](O)[C@@H](O)[C@H](O)C2)C1=O [Compound 58, (3E,4aS,5S)-4,4a,5,6,7,8-Hexahydro-5-hydroxy-3-{2-[(1S,3R,4S,5R)-1,3,4,5-tetrahydroxycyclohexyl]-ethyliden}-1,4a-dimethylnaphthalen2(3H)-one] |  | 
 |  | CCCCCCC#Cc1ccc(/C=C2\C[C@@]3(C)C(=C(C)C2=O)CCC[C@@H]3O)cc1 [Compound 91, (3E,4aS,5S)-3-[4-(Oct-1-inyl)benzyliden]-4,4a,5,6,7,8-hexahydro-5-hydroxy-1,4a-dimethylnaphthalen-2(3H)-one] | < 10 | 
10 to 50 | 10 to 50 | CC1=C2CCC[C@H](O)[C@@]2(C)C/C(=C\c2cccs2)C1=O [Compound 30, (3E,4aS,5S)-4,4a,5,6,7,8-Hexahydro-5-hydroxy-1,4a-dimethyl-3-[(thiophen-2-yl)methylen]naphthalen-2(3H)-one] |  | 
10 to 50 | 10 to 50 | CC1=C2CCC[C@H](O)[C@@]2(C)CC(=Cc2ccc(C#Cc3ccncc3)cc2)C1=O [Compound 395, (4aS,5S)-5-Hydroxy-1,4a-dimethyl-3-(4-pyridin-4-ylethynyl-benzylidene)-4,4a,5,6,7,8-hexahydro-3H-naphthalen-2-one] |  | 
 |  | C=CC[C@]12C(CCC[C@@H]1O)C(C)C(=O)/C(=C/c1cccc(C#CCOC)c1)[C@@H]2C (stereo partly drawn) [Compound 349, (E,4R,4aR,5S)-3-[3-(3-Methoxyprop-1-inyl)benzyliden]-4a-allyl-octahydro-5-hydroxy-1,4-dimethylnaphthalen-2(1H)-one] | 10 to 50 | 
 |  | CC1=C2CCCC3(OCCO3)C2(C)CC/C1=C1/C=CC(=O)O1 (stereo not shown) [Compound 415, (5E)-5-(5′,8a′-dimethyl-3′,4′,8′,8a′-tetrahydro-2′H-spiro[1,3-dioxolane-2,1′-naphthalen]-6′(7′H)-ylidene)furan-2(5H)-one] | 10 to 50 | 
 |  | CCCCCCCCCCCCCCC#Cc1ccccc1/C=C1\C[C@@]2(C)C(=CC1=O)CCC[C@@H]2O [Compound 332, (3E,4aS,5S)-3-[2-(Hexadec-1-inyl)benzyliden]-4,4a,5,6,7,8-hexahydro-5-hydroxy-4a-methylnaphthalen-2(3H)-one] | 10 to 50 | 
 |  | C#CCCCCCC#Cc1ccc(/C=C2\C[C@@]3(C)C(=C(C)C2=O)CCC[C@@H]3O)cc1 [Compound 42, (3E,4aS,5S)-3-[4-(Nona-1,8-diinyl)benzyliden]-4,4a,5,6,7,8-hexahydro-5-hydroxy-1,4a-dimethyl-naphthalen-2(3H)-one] | < 10 | 
10 to 50 | 10 to 50 | CC1=C2CCC[C@H](O)[C@@]2(C)C/C(=C\c2sccc2C)C1=O [Compound 33] |  | 
 | 10 to 50 | CC1=C2CC(C(C)C)CC(O)C2CCC1=O (stereo not shown) [Compound 417, 5-Hydroxy-7-isopropyl-1-methyl-4,4a,5,6,7,8,-hexahydro-3H-naphthalen-2-one] |  | 
 |  | COCC#Cc1cccc(/C=C2\C[C@@]3(C)C(CCC[C@@H]3O)C(C)C2NC2CCCCC2)c1 (stereo partly drawn) [Compound 346, (E,1S,8aS)-7-[3-(3-Methoxyprop-1-inyl)benzyliden]-6-(cyclohexylamino)-decahydro-5,8a-dimethylnaphthalen-1-ol] | 10 to 50 | 

Compound | IC50 [2] [µM] | IC50 [3] [µM] | IC50 ([1]; read-out: IC50 Target Cdc25A) [µM] | IC50 [1] [µM]
C[C@]12C/C(=C\c3ccc(C#C[Si](C)(C)C)cc3)C(=O)C=C1CCC[C@@H]2O [Compound 137, (3E,4aS,5S)-3-{4-[2-(Trimethylsilyl)ethinyl]benzyliden}-4,4a,5,6,7,8-hexahydro-5-hydroxy-4a-methylnaphthalen-2(3H)-one] | 10 to 50 |  |  | < 10
CC1=C2CCC[C@H](O)[C@@]2(C)C/C(=C\c2ccc(C#CC(C)(C)O)cc2)C1=O [Compound 44, (3E,4aS,5S)-3-[4-(3-Hydroxy-3-methylbut-1-inyl)benzyliden]-4,4a,5,6,7,8-hexahydro-5-hydroxy-1,4a-dimethyl-naphthalen-2(3H)-one] | 10 to 50 | 10 to 50 | 10 to 50 | 
CCOC(C#Cc1ccc(/C=C2\C[C@@]3(C)C(=C(C)C2=O)CCC[C@@H]3O)cc1)OCC [Compound 46, (3E,4aS,5S)-3-[4-(3,3-Diethoxyprop-1-inyl)benzyliden]-4,4a,5,6,7,8-hexahydro-5-hydroxy-1,4a-dimethylnaphthalen-2(3H)-on] | 10 to 50 | 10 to 50 | < 10 | 
C[C@]12C/C(=C\c3ccc(C#CC4(O)CCCCC4)cc3)C(=O)C=C1CCC[C@@H]2O [Compound 138, (3E,4aS,5S)-3-{4-[2-(1-Hydroxycyclohexyl)ethinyl]benzyliden}-4,4a,5,6,7,8-hexahydro-5-hydroxy-4a-methylnaphthalen-2(3H)-one] | 10 to 50 |  | < 10 | 
CC1=C2CCCC(=O)[C@@]2(C)CC/C1=C1/C=CC(=O)O1 [Compound 401, (2E,4aS)-5-(1,4a-Dimethyl-5-oxo-4,4a,5,6,7,8-hexahydro-3H-naphthalen-2-ylidene)-5H-furan-2-one] | 10 to 50 |  | 10 to 50 | 
CCCCC1(C)C(=O)CC[C@@]2(C)C1CCC[C@@H]2O (stereo partly drawn) [Compound 414, (4aS,5S)-1-Butyl-5-hydroxy-1,4a-dimethyl-1-octahydro-naphthalen-2-one] |  | 10 to 50 | 10 to 50 | 
